Test results from US20260133193A1, “COMPOSITIONS AND METHODS FOR TREATING INFLAMMATORY DISEASES” (University of Washington, priority 2018, published 2026).
Entries after “also recorded” stand apart in the source; their conditions may differ.

Key:
Type in all cases: cell-based, human
FcgRIIA on neutrophils [1] = experiment: FcgRIIA shedding, fluorimetry of shed antibody-FcgRIIA complexes in supernatant; settings: pre-labeled neutrophils, R848 stimulation
Protocol: To assess if reduction in FcgRIIA cell surface expression was dependent on proteolytic cleavage or internalization of the receptor, we analyzed total FcgRIIA expression in fixed permeabilized neutrophils. Specifically, neutrophils were activated with R848 and FcgRIIA levels analyzed in permeabilized cells by flow cytometry. The experiment was repeated five times and compared using paired t test (P=0.0075). […] Specifically, FcgRIIA cell surface expression was analyzed by flow cytometry using two antibodies, FUN2 and IV.3, in non-stimulated and R848-stimulated neutrophils. The experiment was repeated six times; combined results were compared using paired t test (P<0.0001). […] For this experiment, neutrophils were labeled with FITC-conjugated IV.3 anti-FcgRIIA or anti-FUN-2 antibodies and the shed antibody-FcgRIIA complex quantified by fluorimetry following R848 stimulation with or without prior addition of a pan-protease inhibitor. […]
For detection of shed FcgRIIA, neutrophils were pre-labeled with FITC-conjugated anti-CD32A antibody IV.3 (Stemcell Technologies) or FITC-conjugated anti-CD32A antibody FUN-2 (Biolegend), and washed extensively prior to activation with R848. Cell free supernatant was analyzed for shed FcgRIIA-anti-CD32A-FITC complexes by flourimetry (Synergy 2, BioTek) using anti-CD32A antibodies as a standard curve. […]

FcgRIIA on neutrophils [2] = experiment: FcgRIIA shedding, flow cytometry of neutrophil cell surface FcgRs; settings: flow cytometry
Source text: To determine the mechanism for the TLR-induced reduction in RNP-IC phagocytosis, we analyzed the neutrophil surface expression of FcgRs after exposure to TLR ligand. Neutrophils were activated with R848 and cell surface expression of FcgRs analyzed by flow cytometry. The results were presented as FcgR levels as compared to no R848 added (% of control). The experiment was repeated five (FcgRI), seven (FcgRIII), and twenty-five (FcgRIIA) times; combined results were compared using paired t test (FcgRIIA, P<0.0001; FcgRI, P=0.027; FcgRIII, P=0.0044). […] In this experiment, neutrophils were activated with the TLR7/8 agonist R848 and analyzed for FcgRIIA at different time-points and concentrations. The experiment was repeated four (concentration) and six (kinetics) times; combined results were compared using paired t test (30 min, P=0.0158; 60 min, P<0.0001; 120 min, P=0.0003; 0.125 μg/mL, P=0.0071; 0.25 μg/mL, P=0.0058; 0.5 μg/mL, P=0.0008; 1 μg/mL, P<0.0001; 2 μg/mL, P<0.0001). […] For these experiments, neutrophils were activated with TLR ligands (LPS, 1 μg/mL, PAM3CSK4 (5 μg/mL), CpG DNA (2 μg/mL), Loxoribine (0.1 mM), CL075 (2.5 μg/mL) or R848 (2 μg/mL)) for 60 minutes or 4 hours and analyzed for FcgRIIA, FcgRII or CD11b and CD66b cell surface expression by flow cytometry. Experiments were repeated six (LPS, P=0.0008), eight (CpG DNA, P=0.035; Loxoribine, P<0.0001, and CL075, P<0.0001), ten (PAM3CSK4, P<0.0001) and forty times (R848, P<0.0001); combined results were compared using paired t test. Additional experiments were repeated four and eight times; combined results were compared using paired t test (CD11b: R848, P<0.0001; LPS, P=0.0002; PAM, P<0.0001; CpG DNA, P<0.0001; CD66b: R848, P<0.0001; LPS, P<0.0001; PAM, P<0.0001; CpG DNA, P=0.014).
Neutrophils were activated by LPS (1 μg/mL), R848 (2 μg/mL), PAM3CSK4 (5 μg/mL), Loxoribine (0.1 mM), CL075 (2.5 μg/mL) or CpG DNA (2 μg/mL) for 30 minutes, followed by analysis of cell surface expression of CD32A (IV.3; Stemcell Technologies, FUN-2, BioLegend), CD16 (clone 3G8), CD64 (clone 10.1), and CD66b (all from BioLegend) by flow cytometry. For intracellular staining, neutrophils were fixed in 2% paraformaldehyde for 10 minutes, permeabilized with saponin (diluted 1:1000 in PBS) for 15 minutes and stained with anti-CD32A antibodies diluted 1:100. In some experiments, neutrophils were incubated with inhibitors (DPI (25 μM, Sigma), apocynin (100 μM, Sigma), GM-6001 (10 μM, Enzo Life Sciences), LY294002 (10 μM), cOmplete Protease Inhibitor Cocktail Tablets (1× dissolved in H2O, Roche), neutrophil elastase IV inhibitor (25 μM, Calbiochem), E-64 (1 μM, Sigma), 4-(2-Aminoethyl)benzenesulfonyl fluoride hydrochloride (AEBSF, 0.1 mM, Sigma), CMK (25 μM, Enzo Life Sciences), cytochalasin B (5 μM, Sigma) or chymostatin (10 μg/mL, Sigma)) or recombinant furin (100 ng/mL, maximal dose tolerated by the neutrophils, Peprotech) 30 minutes prior to addition of stimuli. In some experiments cell surface levels of B cell activating factor (BAFF, Biolegend) was analyzed according to the same protocol as described above. Monocytes and pDCs were detected using antibodies to CD14 (BioLegend) and CD304 (Miltenyi Biotech), respectively.

neutrophils = experiment: Phagocytosis assay in neutrophils (flow cytometry)
Protocol: To determine whether the reciprocal was true, namely, that TLR activation could inhibit phagocytosis of ICs, the uptake of RNase-treated RNP-ICs was analyzed in presence of the TLR7/8 agonist, R848. […] Specifically, neutrophils were stimulated with R848 prior to incubation with RNase-treated RNP-ICs, HAGG, beads or zymosan. The results are expressed as phagocytosis as compared to no R848 added (% of control). […] Finally, to determine if TLR7/8 activation affected the internalization process and/or the binding ability of the ICs, neutrophils were treated with the cytoskeleton inhibitor Cytochalasin B prior to adding the ICs, thus blocking uptake, but not binding. Specifically, neutrophils, treated with or without R848 followed by cytochalasin B (CytoB, 5 μM), were analyzed for binding and uptake of RNP-ICs by flow cytometry.
SLE IgG, SmRNP and heat-aggregated IgG (HAGG) were labeled with Alexa-647 according to manufacturer's protocol (Life Technologies). Neutrophils, or PBMCs, from healthy individual were stimulated with different ICs, FITC-conjugated latex beads or zymosan (100 μg/mL, Life Technologies) for 30 minutes at 37° C. and immediately analyzed for phagocytosis. In blocking experiments, neutrophils were incubated with 0.1 μM TLR7-9 or control iODN (Enzo Life Sciences), CMK (25 μM, Enzo Life Sciences), cytochalasin B (5 M, Sigma) or antibodies directed against CD16, CD32 or CD64 (all used at 10 μg/mL, BioLegend) for 30 minutes before addition of stimuli. In some experiments, R848, at a concentration of 2 μg/mL, or neutrophil supernatant, was added 30 and 90 minutes before addition of the phagocytic stimuli, respectively.

[3] = neutrophils stimulated with R848 before stimuli, vs no R848

SMILES: CCOCc1nc2c(N)nc3ccccc3c2n1CC(C)(C)O [R848]
- cell-free FcgRIIA-IV.3 (anti-CD32A) complexes in supernatant (FcgRIIA on neutrophils [1]): detected in increased amounts in the cell-free supernatant
- neutrophil cell surface expression of FcgRIIA after stimulus (FcgRIIA on neutrophils [2]; clone IV.3, vs non-stimulated): significantly reduced; also recorded: time- and dose-dependent
- neutrophil surface levels of FcgRIIIB and FcgRI after stimulus (FcgRIIA on neutrophils [2]; vs no R848): increased
- uptake of RNase-treated RNP-ICs and HAGG by neutrophils (neutrophils; [3]): significantly decreased uptake of ICs as well as heat-aggregated IgG (HAGG)
- uptake of beads and zymosan by neutrophils (neutrophils; [3]): increased uptake of beads and zymosan
- binding and uptake of RNP-ICs by neutrophils (neutrophils; with or without R848, followed by cytochalasin B 5 μM): suppressed both IC-mediated binding and subsequent phagocytosis
